Assay results taken from patent US4617393A, “5-substituted-6-aminopyrimidines, composition and uses as cardiotonic agents for increasing cardiac contractility” (American Home Products Corporation, priority 1985, dated 1986).
Read-outs that look alike come from different tables or passages of the source.

Key:
[1] = test system: Isolated Cat Papillary Muscle; experiment: Test for Cardiotonic Activity in Isolated Cat Papillary Muscle; format: cell-based; details: Felis catus; for EC50: increase in force of contraction, stimulated at 0.5 Hz, 37° C.; for activation at 100 µM: read-out: % increase (force of contraction)
Protocol: Test for Cardiotonic Activity in Isolated Cat Papillary Muscle
A cat of either sex was anesthetized with Na pentobarbital, 25-30 mg/kg i.v. The heart was rapidly removed and placed in cool Tyrode's solution which had been equilibrated with 95% O2 -5% CO2. The right ventricle was opened by cutting down the sides and around the apex so that the free wall could be folded back on the atriventricular groove. Usually at least three suitably-sized papillary muscles were found (1 mm or less in thickness). Threads were tied around the chordae tendonae and the base of the muscle just above its point of insertion into the ventricular wall. The chordae were cut, and the muscle was removed along with a small button of ventricular wall. If a sufficient number of papillary muscles were not present, trabeculae carnae could also be used. The best ones were usually found inserting just under the valve.
The preparations were mounted in tissue baths containing Tyrode's solution at 37° C. bubbled with 95% O2 -5% CO2. One thread was affixed to a tissue holder incorporating a pair of platinum electrodes and the other thread was attached to a force displacement transducer. Initial tension placed on the preparation was 0.2 g (less for very small muscles). The preparations were stimulated with square-wave pulses, 2-4 msec. in duration and 10% above threshold voltage, at a rate of 0.5 Hz. […] The preparations were then allowed to equilibrate for one hour with frequent changes of the bathing fluid (10-15 min. intervals). The test compound was added to the bath in 0.1 mL of vehicle and incubated with the preparation for 15 min. or until peak effect was attained.
Using this method, the following representative compounds of formula I were effective for increasing the force of contraction of the papillary muscle.

[2] = test system: Pentobarbital-Induced Cardiac Failure in the Dog; experiment: Pentobarbital-induced Cardiac Failure in the Dog; format: in vivo; details: Canis lupus familiaris, iv, anesthetized dog, read-out: ED50 (dose i.v. to give a 50% increase in dP/dt)
Protocol: Pentobarbital-induced Cardiac Failure in the Dog
A dog of either sex was anesthetized with Na pentobarbital, 30-35 mg/kg i.v. The trachea was intubated and the animal was respired at a rate of 20 breaths/min (stroke volume=15 cc/kg). Both femoral veins were cannulated. One cannula was used for infusion of pentobarbital to induce and maintain failure, the other for injection of test compounds. A cannual was inserted into the aorta via a femoral artery and the cannula was attached to a blood pressure transducer for measurement of systolic, diastolic and mean aortic blood pressure. A Millar pressure-tip catheter was inserted into the other femoral artery and advanced into the left ventricle to record intraventricular pressure and dP/dt. Subdermal needle electrodes were used to record a lead II electrocardiogram and heart rate.
Following a stabilization period of at least 30 min, experimental failure was induced by the i.v. infusion of Na pentobarbital, 0.75 mg/kg/min in 0.2 mL of saline/min, until a 40-50% decrease in peak positive dP/dt was obtained. The failure state was maintained at this level throughout the experiment by continuous infusion of Na pentobarbital, 0.11-0.15 mg/kg/min. Once the maintenance infusion was started, at least 15 min were allowed to elapse before test drugs were administered.
Test compounds were prepared in N saline. Increasingly higher doses were given i.v. at 30 min-1 hr intervals in order to determine a therapeutic (50% increase in dP/dt) to toxic (appearance of arrhythmias) ratio where possible.
Using this method, the following representative compounds of formula I were effective for increasing the cardiac contractility of the heart (the amount of test compound in mg per kg of body weight administered i.v. to give a 50% increase in dP/dt.

SMILES	EC50 [1]	ED50 [2]	further results
Cc1nc(O)c(Br)c(NCc2cccnc2)n1 [Example 1, 5-Bromo-2-methyl-6-[(3-pyridinylmethyl)amino]-4-pyrimidinol]	2.5 µM	0.012 mg/kg	
Cc1nc(=O)c(C)c(NCCc2cccn2C)[nH]1 [Example 2, 1,4-Dihydro-2,5-dimethyl-6-[[2-(1-methyl-1H-pyrrol-2-yl)ethyl]amino]-4-pyrimidinone]	2.9 µM		
Cc1nc(O)c(Cl)c(NCc2cccnc2)n1 [Example 3, 5-Chloro-2-methyl-6-[(3-pyridinylmethyl)amino]-4-pyrimidinol]	1 µM	0.02 mg/kg	
Cc1nc(O)c(Cl)c(NCCc2ccccc2)n1 [Example 4, 5-Chloro-2-methyl-6-[(2-phenylethyl)amino]-4-pyrimidinol]	1.5 µM	0.04 mg/kg	
Cc1nc(=O)c(C)c(NCc2cccnc2)[nH]1 [Example 5, 1,4-Dihydro-2,5-dimethyl-6-[(3-pyridinylmethyl)amino]-pyrimidine-4-one]	11 µM	0.05 mg/kg	
Cc1nc(=O)c(F)c(NCc2cccnc2)[nH]1 [Example 6, 5-Fluoro-1,4-dihydro-2-methyl-6-[(3-pyridinylmethyl)amino]-4-pyrimidinone]			activation at 100 µM ([1]; at 10^-4 M): 69%
Cc1nc(O)c(C(C)C)c(NCc2cccnc2)n1 [Example 7, 2-Methyl-5-(1-methylethyl)-6-[(3-pyridinylmethyl)amino]-4-pyrimidinol]	7.4 µM	0.13 mg/kg	
Cc1nc(O)c(C)c(NCCc2ccncc2)n1 [Example 8, 2,5-Dimethyl-6-[(2-(4-pyridinyl)ethyl)amino]-4-pyrimidinol]			activation at 100 µM ([1]; at 10^-4 (unit inferred)): 52%
Cc1nc(O)c(Br)c(NCCc2ccccc2)n1 [Example 9, 5-Bromo-2-methyl-6-[(2-phenylethyl)amino]-4-pyrimidinol]		0.03 mg/kg	EC50 ([1]; unit inferred): 13 µM
Cc1nc(O)c(Br)c(NCCc2ccncc2)n1 [Example 10, 5-Bromo-2-methyl-6-[[2-(4-pyridinyl)ethyl]amino]-4-pyrimidinol]			EC50 ([1]; unit inferred): 250 µM
Cc1nc(O)c(C)c(NCc2ccco2)n1 [Example 11, 6-[(2-Furanylmethyl)amino]-2,5-dimethyl-4-pyrimidinol]	10 µM		
CCNc1nc(C)nc(O)c1C [Example 12, 6-(Ethylamino)-2,5-dimethyl-4-pyrimidinol]	5 µM	0.04 mg/kg	
Cc1nc(O)c(C)c(NCC2CC2)n1 [Example 13, 6-[(Cyclopropylmethyl)amino]-2,5-dimethyl-4-pyrimidinol]	3.7 µM	0.05 mg/kg	
CCNc1nc(C)nc(O)c1C(C)C [Example 14, 6-(Ethylamino)-2-methyl-5-(1-methylethyl)-4-pyrimidinol]		0.04 mg/kg	activation at 100 µM ([1]; at 10^-4 M): 86%
CCNc1[nH]c(C)nc(=O)c1Br [Example 15, 5-Bromo-1,4-dihydro-6-(ethylamino)-2-methyl-4-pyrimidinone]	2.8 µM	0.01 mg/kg	
Cc1nc(O)c(Br)c(NCCO)n1 [Example 16, 5-Bromo-6-[(2-hydroxyethyl)amino]-2-methyl-4-pyrimidinol]	8.2 µM		
Cc1nc(O)c(C(C)C)c(NCC2CC2)n1 [Example 17, 6-[(Cyclopropylmethyl)amino]-2-methyl-5-(1-methylethyl)-4-pyrimidinol]		0.5 mg/kg	activation at 100 µM ([1]; at 10^-4 M): 185%
